Consider 3 molecules from US20230183169A1, “AROMATIC COMPOUND, PREPARATION METHOD THEREFOR AND USE THEREOF IN DRUG” (SICHUAN ACADEMY OF MEDICAL SCIENCES - SICHUAN PROVINCIAL …, priority 2020, published 2023).

Where a name gives a salt, the structure may show the parent alone.

One series deals with male SD rats. As to the kind of experiment: Subcutaneous infiltration anesthesia in rats (acupuncture stimulation of back skin). Type of series: in vivo, rat. The conditions noted are these: 0.4 mL subcutaneous. The procedure: The compounds of the examples were dissolved in water for injection to a concentration of 0.2-0.5 g/100 mL (0.2-0.5%), or mixed with commercially-available clinically-common local anesthetic drugs to prepare a mixed solution with a specific proportion, and the 0.75% levobupivacaine was used as the positive control compound. The experimental method was as follows: male SD rats weighing 180-300 g were shaved off back hair 1 day before the experiment, and a circular skin area with a diameter of 4 cm was exposed. 0.4 mL of the drug solution was subcutaneously injected to the exposed circular center on the back using a 1 mL syringe to form a skin mound. After 1 minute, the first measurement was performed. Each of 8 random parts around the center of the injection site was stimulated once by acupuncture of 15 g force using a 26G needle (the stimulation site was no more than 1 cm away from the injection center). […] If there was no such behavior, it was considered that the local anesthetic effect existed. […] Except for the first measurement, the measurement was performed every 2 hours within 12 hours after the administration, and every 6 hours after 12 hours after the administration. 8 rats were used for each drug for the experiment.

Series [1] deals with left sciatic nerve of rats. In words: Sciatic nerve blocking experiment in rats (Von Frey filaments 60 g). Type of series: in vivo, rat. On the procedure:
The compounds of the examples were dissolved in water for injection to a concentration of 0.5-2.0 g/100 mL (0.5%-2%), or mixed with commercially-available clinically-common local anesthetic drugs to prepare a mixed solution with a specific proportion, and the 0.75% levobupivacaine was used as the positive control compound. The experimental method was as follows: male SD rats weighing 180-300 g were anesthetized with isoflurane, 0.2 mL of the drug-containing solution was injected near the left sciatic nerve of rats, and 8 rats were used for each drug for the experiment. After the rats woke up, the first measurement was performed, and then the measurement was performed every 2 hours. If there was still an anesthetic effect after six measurements, the measurement was performed every 6 hours until the anesthetic effect disappeared. The method for judging the existence of anesthetic effect was as follows. The skin of the sole and lateral surface of the hindlimb of the rat on the side injected with the drug was stimulated using Von Frey filaments (60 g). […] If there was no such behavior, it was considered that the local anesthetic effect existed.

The test system of the next series is rats. In words: Mortality rate after injection of drugs through tail vein. As to conditions: 0.4 mL through tail vein, 10 rats. Type of series: in vivo, rat. The procedure:
0.2% aqueous solution of the compounds of the present invention and 0.75% levobupivacaine solution were injected into the rats through tail vein in 0.4 mL, and the mortality rate was observed. Each drug was injected into 10 rats (half male and half female, weighing 290-310).

For series [2] the following is noted: background, literature; cited from earlier work.

`CC[N+](CC)(CCO)CC(=O)Nc1c(C)cc(OCCCCN2CCCCC2C(=O)Nc2c(C)cccc2C)cc1C` (centres unmarked) [Compound 53]: the “Duration of local anesthesia” value is 36 to 48 h in the series with male SD rats (0.15 + 0.15% tetracaine hydrochloride); 24 to 30 h with male SD rats (0.2%, rat back); 48 to 54 h in the series with male SD rats (0.5%, rat back); 30 to 36 h in series [1] (0.5%, 0.2 mL near left sciatic nerve); 42 to 66 h in series [1] (0.5 + 0.15% tetracaine hydrochloride, 0.2 mL near sciatic nerve); 42 to 54 h in series [1] (1.0%, 0.2 mL near left sciatic nerve). Further, the “Duration of local anesthesia” value in series [1] (2.0%, 0.2 mL near left sciatic nerve) fell in the range of 72 to 84 h. In addition, in the series with rats (0.2% aqueous solution), the Mortality rate % was determined as 0%.
With `CCCCN1CCCC[C@H]1C(=O)Nc1c(C)cccc1C` [Levobupivacaine hydrochloride, reference compound], the “Duration of local anesthesia” value with male SD rats (0.75%, rat back, hydrochloride) lay in the range of 4 to 6 h; with male SD rats (0.75%, rat back, listed as levobupivacaine, hydrochloride), 4 to 6 h; in series [1] (0.75%, 0.2 mL near left sciatic nerve), 2 to 6 h. Also, the “Duration of motor block” value in series [1] (0.75%, compared with sensory block) was “basically the same as that of the sensory block”. In series [1] (0.75%, side injected with the drug), the “Block of motor function of the hindlimb” value is given as “significantly blocked the motor function”. In addition, the Mortality rate % with rats (0.75% solution, hydrochloride) is 70%; with rats (0.75% solution, listed as levobupivaca, hydrochloride), “death of most animals”; with rats (0.75% solution, listed as levobupivacaine, hydrochloride) it was 70%.
As for `CCN(CC)CC(=O)Nc1c(C)cccc1C` [lidocaine], the “Duration of local anesthesia” value in series [2] is 2 h.
